Test results: PubChem BioAssay (NCI)
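How tested: cells in 96-well plates exposed to compound for 48 hours at five concentrations. GI50 marks 50% less growth. TGI: total growth inhibition.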

Columns and labels:
Assay in all cases: NCI anticancer screen, dose series, 48 h
MOLT-4 leukemia = system: MOLT-4 leukemia
DLD-1 colon = system: DLD-1 colon
K-562 leukemia = system: K-562 leukemia
HL-60(TB) leukemia = system: HL-60(TB) leukemia
SF-295 CNS = system: SF-295 CNS
HOP-62 NSCLC = system: HOP-62 NSCLC
TK-10 renal = system: TK-10 renal
A498 renal = system: A498 renal
EKVX NSCLC = system: EKVX NSCLC
CCRF-CEM leukemia = system: CCRF-CEM leukemia
KM20L2 colon = system: KM20L2 colon
SNB-78 CNS = system: SNB-78 CNS
HOP-92 NSCLC = system: HOP-92 NSCLC
SK-MEL-28 melanoma = system: SK-MEL-28 melanoma
UACC-257 melanoma = system: UACC-257 melanoma
NCI-H522 lung = system: NCI-H522 lung
M19-MEL melanoma = system: M19-MEL melanoma
OVCAR-8 ovarian = system: OVCAR-8 ovarian
OVCAR-3 ovarian = system: OVCAR-3 ovarian
KM12 colon = system: KM12 colon
SF-268 CNS = system: SF-268 CNS
UO-31 renal = system: UO-31 renal
NCI-H226 lung = system: NCI-H226 lung
SW-620 colon = system: SW-620 colon
UACC-62 melanoma = system: UACC-62 melanoma
NCI-H23 lung = system: NCI-H23 lung
HCC-2998 colon = system: HCC-2998 colon
LOX IMVI melanoma = system: LOX IMVI melanoma
U251 CNS = system: U251 CNS
DMS 114 small cell lung = system: DMS 114 small cell lung
HOP-18 NSCLC = system: HOP-18 NSCLC
HCT-116 colon = system: HCT-116 colon
SNB-19 CNS = system: SNB-19 CNS
CAKI-1 renal = system: CAKI-1 renal
786-0 renal = system: 786-0 renal
SNB-75 CNS = system: SNB-75 CNS
OVCAR-4 ovarian = system: OVCAR-4 ovarian
HT29 colon = system: HT29 colon
NCI-H460 lung = system: NCI-H460 lung
SK-MEL-5 melanoma = system: SK-MEL-5 melanoma
SN12C renal = system: SN12C renal
COLO 205 colon = system: COLO 205 colon
SF-539 CNS = system: SF-539 CNS
SK-OV-3 ovarian = system: SK-OV-3 ovarian
LXFL 529 NSCLC = system: LXFL 529 NSCLC
M14 melanoma = system: M14 melanoma
SK-MEL-2 melanoma = system: SK-MEL-2 melanoma
IGROV1 ovarian = system: IGROV1 ovarian
A549 NSCLC = system: A549 NSCLC
HCT-15 colon = system: HCT-15 colon
ACHN renal = system: ACHN renal
RXF 393 renal = system: RXF 393 renal
MALME-3M melanoma = system: MALME-3M melanoma
SR leukemia = system: SR leukemia
OVCAR-5 ovarian = system: OVCAR-5 ovarian
XF 498 CNS = system: XF 498 CNS
DMS 273 small cell lung = system: DMS 273 small cell lung
RPMI-8226 leukemia = system: RPMI-8226 leukemia

O=C(C#Cc1ccccc1)NC/C=C/c1ccccc1
TGI (MOLT-4 leukemia): > 100 µM | TGI (DLD-1 colon): > 100 µM | TGI (K-562 leukemia): > 100 µM | TGI (HL-60(TB) leukemia): 58.1 µM | TGI (SF-295 CNS): > 100 µM | TGI (HOP-62 NSCLC): 52.5 µM | TGI (TK-10 renal): > 100 µM | TGI (A498 renal): > 100 µM | TGI (EKVX NSCLC): > 100 µM | TGI (CCRF-CEM leukemia): > 100 µM | TGI (KM20L2 colon): > 100 µM | TGI (SNB-78 CNS): 84.1 µM | TGI (HOP-92 NSCLC): 57.2 µM | TGI (SK-MEL-28 melanoma): > 100 µM | TGI (UACC-257 melanoma): > 100 µM | TGI (NCI-H522 lung): 96.6 µM | TGI (M19-MEL melanoma): > 100 µM | TGI (OVCAR-8 ovarian): > 100 µM | TGI (OVCAR-3 ovarian): > 100 µM | TGI (KM12 colon): > 100 µM | TGI (SF-268 CNS): > 100 µM | TGI (UO-31 renal): > 100 µM | TGI (NCI-H226 lung): 93.8 µM | TGI (SW-620 colon): > 100 µM | TGI (UACC-62 melanoma): > 100 µM | TGI (NCI-H23 lung): > 100 µM | TGI (HCC-2998 colon): 99.2 µM | TGI (LOX IMVI melanoma): > 100 µM | TGI (U251 CNS): > 100 µM | TGI (DMS 114 small cell lung): > 100 µM | TGI (HOP-18 NSCLC): > 100 µM | TGI (HCT-116 colon): > 100 µM | TGI (SNB-19 CNS): 79.9 µM | TGI (CAKI-1 renal): > 100 µM | TGI (786-0 renal): 56.2 µM | TGI (SNB-75 CNS): 45.8 µM | TGI (OVCAR-4 ovarian): > 100 µM | TGI (HT29 colon): > 100 µM | TGI (NCI-H460 lung): > 100 µM | TGI (SK-MEL-5 melanoma): > 100 µM | TGI (SN12C renal): > 100 µM | TGI (COLO 205 colon): > 100 µM | TGI (SF-539 CNS): > 100 µM | TGI (SK-OV-3 ovarian): 56.6 µM | TGI (LXFL 529 NSCLC): > 100 µM | TGI (M14 melanoma): > 100 µM | TGI (SK-MEL-2 melanoma): 97.4 µM | TGI (IGROV1 ovarian): > 100 µM | TGI (A549 NSCLC): > 100 µM | TGI (HCT-15 colon): > 100 µM | TGI (ACHN renal): > 100 µM | TGI (RXF 393 renal): 37 µM | TGI (MALME-3M melanoma): > 100 µM | TGI (SR leukemia): > 100 µM | TGI (OVCAR-5 ovarian): > 100 µM

O=C([O-])C([O-])C([O-])C(=O)[O-].[Co+3].c1ccc(-c2ccnc3c2ccc2c(-c4ccccc4)ccnc23)cc1.c1ccc(-c2ccnc3c2ccc2c(-c4ccccc4)ccnc23)cc1.c1ccc(-c2ccnc3c2ccc2c(-c4ccccc4)ccnc23)cc1
TGI (DLD-1 colon): 1.6 µM | TGI (KM20L2 colon): 0.291 µM | TGI (SK-MEL-28 melanoma): 1.96 µM | TGI (NCI-H522 lung): 0.128 µM | TGI (UO-31 renal): 0.0823 µM | TGI (NCI-H226 lung): 0.27 µM | TGI (UACC-62 melanoma): 0.407 µM | GI50 (CAKI-1 renal): 0.0339 µM | TGI (CAKI-1 renal): 0.235 µM | TGI (SNB-75 CNS): > 100 µM | TGI (SR leukemia): 0.207 µM | TGI (OVCAR-5 ovarian): 1.65 µM

C=C(c1ccccc1)c1cc2c(=O)[nH]ccc2n1C
TGI (MOLT-4 leukemia): > 100 µM | TGI (DLD-1 colon): > 100 µM | TGI (K-562 leukemia): 46.3 µM | TGI (HL-60(TB) leukemia): 38.1 µM | TGI (SF-295 CNS): 82.9 µM | TGI (HOP-62 NSCLC): > 100 µM | TGI (TK-10 renal): > 100 µM | TGI (EKVX NSCLC): > 100 µM | TGI (CCRF-CEM leukemia): > 100 µM | TGI (KM20L2 colon): 59.7 µM | TGI (SNB-78 CNS): > 100 µM | TGI (HOP-92 NSCLC): 61.3 µM | TGI (SK-MEL-28 melanoma): > 100 µM | TGI (UACC-257 melanoma): > 100 µM | TGI (NCI-H522 lung): 54.9 µM | TGI (M19-MEL melanoma): > 100 µM | TGI (OVCAR-8 ovarian): > 100 µM | TGI (OVCAR-3 ovarian): > 100 µM | TGI (KM12 colon): > 100 µM | TGI (SF-268 CNS): > 100 µM | TGI (UO-31 renal): 66.1 µM | TGI (SW-620 colon): > 100 µM | TGI (UACC-62 melanoma): > 100 µM | TGI (NCI-H23 lung): > 100 µM | TGI (HCC-2998 colon): > 100 µM | TGI (LOX IMVI melanoma): > 100 µM | TGI (DMS 114 small cell lung): 50.1 µM | TGI (SNB-19 CNS): > 100 µM | TGI (XF 498 CNS): 91 µM | TGI (CAKI-1 renal): > 100 µM | TGI (786-0 renal): > 100 µM | TGI (SNB-75 CNS): 45.6 µM | TGI (OVCAR-4 ovarian): > 100 µM | TGI (NCI-H460 lung): > 100 µM | TGI (SK-MEL-5 melanoma): 71.1 µM | TGI (SN12C renal): > 100 µM | TGI (COLO 205 colon): 35.6 µM | TGI (SK-OV-3 ovarian): 69.4 µM | TGI (LXFL 529 NSCLC): > 100 µM | TGI (M14 melanoma): > 100 µM | TGI (SK-MEL-2 melanoma): 58.3 µM | TGI (IGROV1 ovarian): > 100 µM | TGI (A549 NSCLC): > 100 µM | TGI (HCT-15 colon): > 100 µM | TGI (DMS 273 small cell lung): > 100 µM | TGI (ACHN renal): > 100 µM | TGI (RXF 393 renal): 86.1 µM | TGI (MALME-3M melanoma): > 100 µM | TGI (RPMI-8226 leukemia): > 100 µM | TGI (OVCAR-5 ovarian): > 100 µM

CCNC1CC(n2cc(C)c(=O)[nH]c2=O)OC1CO (stereo not given)
TGI (MOLT-4 leukemia): > 100 µM | TGI (DLD-1 colon): > 100 µM | TGI (K-562 leukemia): > 100 µM | TGI (HL-60(TB) leukemia): > 100 µM | TGI (HOP-62 NSCLC): > 100 µM | TGI (A498 renal): > 100 µM | TGI (CCRF-CEM leukemia): > 100 µM | TGI (SNB-78 CNS): > 100 µM | TGI (HOP-92 NSCLC): > 100 µM | TGI (SK-MEL-28 melanoma): > 100 µM | TGI (NCI-H522 lung): > 100 µM | TGI (M19-MEL melanoma): > 100 µM | TGI (SF-268 CNS): > 100 µM | TGI (UO-31 renal): > 100 µM | TGI (NCI-H226 lung): > 100 µM | TGI (UACC-62 melanoma): > 100 µM | TGI (NCI-H23 lung): > 100 µM | TGI (HCC-2998 colon): > 100 µM | TGI (DMS 114 small cell lung): > 100 µM | TGI (HCT-116 colon): > 100 µM | TGI (XF 498 CNS): > 100 µM | TGI (CAKI-1 renal): > 100 µM | TGI (786-0 renal): > 100 µM | TGI (SNB-75 CNS): > 100 µM | TGI (OVCAR-4 ovarian): > 100 µM | TGI (NCI-H460 lung): > 100 µM | TGI (SN12C renal): > 100 µM | TGI (COLO 205 colon): > 100 µM | TGI (SF-539 CNS): > 100 µM | TGI (SK-OV-3 ovarian): > 100 µM | TGI (LXFL 529 NSCLC): > 100 µM | TGI (M14 melanoma): > 100 µM | TGI (SK-MEL-2 melanoma): > 100 µM | TGI (IGROV1 ovarian): > 100 µM | TGI (DMS 273 small cell lung): > 100 µM | TGI (MALME-3M melanoma): > 100 µM | TGI (RPMI-8226 leukemia): > 100 µM | TGI (SR leukemia): > 100 µM
